Measured values: ChEMBL document CHEMBL1201862, “PubChem BioAssay data set” (2004)
The source made the active and inactive calls.

Experiments:
NADPH oxidase 1 = target: T1, NADPH oxidase 1 (Homo sapiens, UniProt Q9Y5S8); format: functional, cell-based;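 also: Cell-based assay with luminescence read-out, IC50 derived from inhibitor dose-response curves; intracellular ROS from endogenous NOX1 in intact HT29 colon cancer cells; potency of inhibitors that lower the ROS luminescence signal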
T1 sequence (Q9Y5S8 whole entry): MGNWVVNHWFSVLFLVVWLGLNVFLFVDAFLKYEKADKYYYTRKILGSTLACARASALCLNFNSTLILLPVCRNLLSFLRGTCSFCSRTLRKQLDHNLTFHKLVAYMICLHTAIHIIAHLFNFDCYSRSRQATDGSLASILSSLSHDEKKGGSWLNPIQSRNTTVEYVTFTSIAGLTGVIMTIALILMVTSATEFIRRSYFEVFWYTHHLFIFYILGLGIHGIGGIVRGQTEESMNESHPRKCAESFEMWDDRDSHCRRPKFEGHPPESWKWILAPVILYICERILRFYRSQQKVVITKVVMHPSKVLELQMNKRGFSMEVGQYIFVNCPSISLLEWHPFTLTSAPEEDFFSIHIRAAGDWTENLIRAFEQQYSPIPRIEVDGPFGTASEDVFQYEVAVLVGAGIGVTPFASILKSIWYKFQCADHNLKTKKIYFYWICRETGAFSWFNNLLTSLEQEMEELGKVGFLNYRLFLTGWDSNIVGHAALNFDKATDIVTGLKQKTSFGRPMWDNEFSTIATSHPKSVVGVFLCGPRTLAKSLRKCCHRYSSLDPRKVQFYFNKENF

[1] = cytotoxicity toward NIH3T3 fibroblasts, dose response, counter-screen, cell-based, ATP luminescence, mouse fibroblasts (AID 2010); format: functional;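 also: cells exposed to compound for about 90 hours before reading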
[2] = inhibitors of intracellular T. cruzi replication, confirmation, NIH3T3 host cells, beta-gal luminescence (AID 2044); format: functional, cell-based;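 also: intracellular parasites grown in NIH/3T3 mouse fibroblasts as host cells; luminescent beta-galactosidase reporter signal from transgenic T. cruzi replicating inside host cells; inhibitors lower the luminescence signal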
[3] = THP-1 cell cytotoxicity, dose response, cytotoxicity control for Vif-APOBEC3G degradation inhibitor project, THP-1 cells (AID 1117359); format: functional; details: Human immunodeficiency virus 1, THP-1
[4] = target: T2, Alkaline phosphatase, tissue-nonspecific isozyme (Homo sapiens, UniProt P05186); assay: human TNAP enzyme inhibitors, SAR follow-up, biochemical, luminescent, dose response (AID 1056)
T2 sequence (P05186 whole entry): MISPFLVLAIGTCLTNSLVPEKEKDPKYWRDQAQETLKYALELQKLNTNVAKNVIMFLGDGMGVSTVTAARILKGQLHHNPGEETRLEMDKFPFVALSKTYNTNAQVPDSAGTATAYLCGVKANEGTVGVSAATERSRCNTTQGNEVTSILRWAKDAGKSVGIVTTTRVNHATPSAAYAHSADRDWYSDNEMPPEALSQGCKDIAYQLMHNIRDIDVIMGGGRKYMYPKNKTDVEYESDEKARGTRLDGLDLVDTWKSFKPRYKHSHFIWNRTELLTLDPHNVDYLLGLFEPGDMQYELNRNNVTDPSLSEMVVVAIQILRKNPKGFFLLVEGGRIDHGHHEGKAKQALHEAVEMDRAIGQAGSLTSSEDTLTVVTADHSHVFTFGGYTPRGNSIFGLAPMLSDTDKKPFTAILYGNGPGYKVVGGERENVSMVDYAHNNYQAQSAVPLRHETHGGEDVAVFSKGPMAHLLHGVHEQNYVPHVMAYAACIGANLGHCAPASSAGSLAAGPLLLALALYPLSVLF

[5] = target: Glyceraldehyde-3-phosphate dehydrogenase (Homo sapiens, UniProt P04406)
Glyceraldehyde-3-phosphate dehydrogenase, sequence (P04406 whole entry): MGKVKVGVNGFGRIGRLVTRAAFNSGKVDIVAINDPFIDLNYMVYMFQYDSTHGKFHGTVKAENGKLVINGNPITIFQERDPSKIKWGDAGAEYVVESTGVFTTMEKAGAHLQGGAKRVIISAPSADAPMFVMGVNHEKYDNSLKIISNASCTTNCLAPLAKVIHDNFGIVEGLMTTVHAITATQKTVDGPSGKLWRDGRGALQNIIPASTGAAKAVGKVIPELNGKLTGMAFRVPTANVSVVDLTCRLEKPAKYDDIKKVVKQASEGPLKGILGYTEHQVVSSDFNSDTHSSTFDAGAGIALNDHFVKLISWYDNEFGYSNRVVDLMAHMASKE

[6] = cytotoxicity in HEK-293T cells, dose response, cytotoxicity control for BCR NF-kB inhibitor project, luminescence, B-cell screen hits (AID 489021); format: functional, cell-based;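 also: HEK-293T cells carrying an NF-kB luciferase reporter; cells exposed to compound for about 14 hours before viability readout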
[7] = target: DNA dC->dU-editing enzyme APOBEC-3G (Homo sapiens, UniProt Q9HC16); assay: Dose Response confirmation of small molecule APOBEC3G DNA Deaminase Inhibitors via a fluorescence-based single-stranded DNA deaminase assay. [Related pubchem assays (depositor defined):AID493012, AID493028]; format: functional
DNA dC->dU-editing enzyme APOBEC-3G, sequence (Q9HC16 whole entry): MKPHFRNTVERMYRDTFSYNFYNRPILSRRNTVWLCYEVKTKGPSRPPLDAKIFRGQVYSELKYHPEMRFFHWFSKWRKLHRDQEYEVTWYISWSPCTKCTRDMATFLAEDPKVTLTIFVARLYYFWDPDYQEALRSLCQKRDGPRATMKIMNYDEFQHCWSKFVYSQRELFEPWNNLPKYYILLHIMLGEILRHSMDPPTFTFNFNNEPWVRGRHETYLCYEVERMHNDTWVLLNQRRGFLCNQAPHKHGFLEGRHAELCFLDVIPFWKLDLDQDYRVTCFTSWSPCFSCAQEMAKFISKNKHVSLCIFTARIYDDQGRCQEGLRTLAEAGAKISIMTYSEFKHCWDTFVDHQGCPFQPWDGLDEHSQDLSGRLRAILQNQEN

[8] = cytotoxicity in KRAS-transformed pancreatic duct cells, primary screen, cell-based, fluorescence, HTS (AID 431); format: functional; details: Homo sapiens;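 also: cell line used: HPDE-C7K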
[9] = cytotoxicity in HPDE-C7 cells, cell-based, fluorescence, HTS (AID 430); format: functional; details: Homo sapiens
Nonstructural protein 1 = Nonstructural protein 1 (Influenza A virus, UniProt Q194T2); format: functional, Influenza A virus (A/California/07/2009(H1N1))
Nonstructural protein 1, sequence (Q194T2 whole entry): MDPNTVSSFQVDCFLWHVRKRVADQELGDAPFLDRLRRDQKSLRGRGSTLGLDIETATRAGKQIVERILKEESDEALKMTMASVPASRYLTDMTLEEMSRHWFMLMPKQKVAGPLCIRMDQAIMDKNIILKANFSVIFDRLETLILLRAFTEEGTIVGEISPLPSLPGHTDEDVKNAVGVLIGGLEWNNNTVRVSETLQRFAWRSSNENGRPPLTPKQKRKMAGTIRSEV

[10] = target: T3, Rac GTPase-activating protein 1 (Homo sapiens, UniProt Q9H0H5); assay: MgcRacGAP GTPase-activating activity inhibitors, confirmation, biochemical, ADP Hunter fluorescence, primary and confirmatory (AID 624330); format: functional
T3 sequence (Q9H0H5 whole entry): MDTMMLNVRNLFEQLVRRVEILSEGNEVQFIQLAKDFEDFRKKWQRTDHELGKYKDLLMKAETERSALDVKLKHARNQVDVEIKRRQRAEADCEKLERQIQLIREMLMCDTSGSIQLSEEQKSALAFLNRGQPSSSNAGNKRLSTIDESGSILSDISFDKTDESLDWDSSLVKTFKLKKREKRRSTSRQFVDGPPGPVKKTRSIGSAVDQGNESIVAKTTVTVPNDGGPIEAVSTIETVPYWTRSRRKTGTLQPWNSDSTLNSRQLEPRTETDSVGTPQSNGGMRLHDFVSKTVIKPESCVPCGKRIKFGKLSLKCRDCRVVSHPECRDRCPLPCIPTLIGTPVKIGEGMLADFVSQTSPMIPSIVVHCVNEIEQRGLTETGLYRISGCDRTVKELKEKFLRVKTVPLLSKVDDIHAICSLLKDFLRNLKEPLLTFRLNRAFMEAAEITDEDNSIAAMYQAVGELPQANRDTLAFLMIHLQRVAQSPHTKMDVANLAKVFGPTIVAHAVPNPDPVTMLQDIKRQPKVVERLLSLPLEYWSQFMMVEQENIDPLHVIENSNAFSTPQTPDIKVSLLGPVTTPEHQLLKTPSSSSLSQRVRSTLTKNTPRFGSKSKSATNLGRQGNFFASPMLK

[11] = P. falciparum Dd2 growth inhibitors, dose response, SYBR Green, cherry-picked samples (AID 1159567); format: functional, cell-based
[12] = HepG2 cell cytotoxicity, dose response, cytotoxicity control, cherry-picked samples (AID 1159577); format: functional, cell-based
[13] = P. falciparum Dd2 growth inhibitors, dose response, SYBR Green, dry powder samples (AID 1159566); format: functional, cell-based;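 also: potency for growth inhibition with lower SYBR green DNA signal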
[14] = HepG2 cell cytotoxicity, dose response, cytotoxicity control, plate reader, dry powder samples (AID 1159569); format: functional, cell-based;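 also: inhibitor potency with signal falling toward the positive control level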
[15] = P. falciparum 3D7-ScDHODH growth inhibitors, dose response, SYBR Green, dry powder samples (AID 1159570); format: functional, cell-based;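 also: parasite growth measured after 72 hours of compound exposure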
[16] = P. falciparum ATP4 D1247Y mutant growth inhibitors, dose response, NITD609-resistant line, SYBR Green, dry powder (AID 1159571); format: functional, cell-based;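 also: parasites synchronized at ring stage by sorbitol before testing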

Compound: O=[N+]([O-])c1cccc(/C=N/Nc2c(Cl)cncc2Cl)c1
- IC50 (NADPH oxidase 1): > 17 µM (not active)

Compound: O=C(O)c1nc(Cl)c(Cl)c(N/N=C/c2ccc(N3CCOCC3)c([N+](=O)[O-])c2)c1Cl
- IC50 (NADPH oxidase 1): > 17 µM (not active)

Compound: COc1ccc(-c2nc(CN3CCN(Cc4cccc(Cl)c4)CC3)c(C)o2)cc1
- EC50 [1]: > 60 µM (not active)
- EC50 (cells): 0.377 µM (active)
- EC50 [2]: < 0.1 µM (active)

Compound: COc1ccc(OC)c(S(=O)(=O)Nc2ccc(O)c3ccccc23)c1
- CC50 [3]: 12.8 µM (active)
- IC50 [4]: > 100 µM (inactive)
- IC50 [5]: > 100 µM (not active)

Compound: CCOc1ccc(-c2cc(CCCC(=O)NCc3ccc(C)cc3)no2)cc1
- IC50 [6]: > 80 µM (inactive)

Compound: O=C(Oc1cccc2ccccc12)c1sc2ccccc2c1Cl
- IC50 (NADPH oxidase 1): > 17 µM (not active)

Compound: O=C(Oc1ccccc1F)c1sc2ccccc2c1Cl
- IC50 (NADPH oxidase 1): > 17 µM (not active)

Compound: COc1ccc(O)c(C(=O)C2c3ccccc3C(=O)N2c2ccc(C)cc2)c1 (stereo unspecified)
- CC50 [3]: > 40 µM (active)
- IC50 [7]: 37.4 µM (active)

Compound: CCc1c(C)nc2cc(-c3cc(OC)cc(OC)c3)nn2c1N1CCCC1
- EC50 [8]: 13 µM (active)
- EC50 [9]: 10.5 µM (active)

Compound: COc1ccc(CN2CCCC(CNC(=O)c3ccc(F)cc3)C2)c(C)c1C (stereo unspecified)
- EC50 [1]: > 30 µM (not active)
- EC50 (cells): 0.09 µM (active)
- EC50 [2]: < 0.1 µM (active)

Compound: Cc1cc(N(C)C)ccc1N=Nc1ccc(N)cc1
- IC50 (Nonstructural protein 1): 21.4 µM (active)
- IC50 [10]: 29.3 µM (active)
- IC50 [6]: > 80 µM (inactive)

Compound: Cc1ccc([C@H]2C(C(=O)O)=CC[C@@H](c3cccc(Cl)c3)N2S(=O)(=O)c2ccc(C)cc2)cc1
- CC50 [3]: > 40 µM (active)

Compound: N#C[C@H]1[C@H](c2ccc(-c3ccccc3)cc2)[C@H](CO)N1C(=O)Cc1ccncc1
- AC50 [11]: 3.05 µM (active)
- AC50 [12]: > 36 µM (inactive)

Compound: COc1ccccc1C#Cc1ccc([C@H]2[C@@H](C#N)N(C(=O)C3CCC3)[C@H]2CO)cc1
- AC50 [11]: 1.36 µM (active)
- AC50 [12]: > 42 µM (inactive)
- AC50 [13]: 0.51 µM (active)
- AC50 [14]: 37.3 µM (active)
- AC50 [15]: 1.16 µM (active)
- AC50 [16]: 0.795 µM (active)

Compound: CO[C@@H]1CN(C)C(=O)c2cc(NC(=O)c3ccc(-c4ccccc4)cc3)ccc2OC[C@@H](C)NC[C@@H]1C
- AC50 [11]: 7.25 µM (active)
- AC50 [12]: 14.2 µM (active)

Compound: COc1ccc2c3c(n(C)c2c1)[C@@H](CO)NCC31CCN(Cc2ccccc2Cl)CC1
- AC50 [11]: 2.44 µM (active)
- AC50 [12]: 18.3 µM (active)

Compound: COc1ccc(C(=O)CC(=O)O)c2c1C=CC(C)(C)O2 [URSINOIC ACID]
- EC50 [8]: > 20 µM (not active)
- EC50 [9]: > 20 µM (not active)
